Assay results taken from ChEMBL document CHEMBL1201862, “PubChem BioAssay data set” (2004).
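Results reflect a 48-hour exposure of cells in 96-well plates to compound at five concentrations. Here, GI50 denotes the concentration required for 50% inhibition of growth.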 Active and inactive are the calls of the source. Cut-off read from the data, not from the text of the source: active = GI50 up to about 1.1 µM and inactive = higher.

Columns and labels:
Experiment in all cases: DTP human tumour cell line panel, 48 h
UACC-257 = tested on: UACC-257
TK-10 = tested on: TK-10
SW-620 = tested on: SW-620
NCI-H460 = tested on: NCI-H460
CCRF-CEM = tested on: CCRF-CEM
MOLT-4 = tested on: MOLT-4
HOP-92 = tested on: HOP-92
ACHN = tested on: ACHN
IGROV-1 = tested on: IGROV-1
KM12 = tested on: KM12
SF-539 = tested on: SF-539
LOX IMVI = tested on: LOX IMVI
U-251 = tested on: U-251
RXF 393 = tested on: RXF 393
NCI-H23 = tested on: NCI-H23
COLO 205 = tested on: COLO 205
SNB-75 = tested on: SNB-75
HCT-116 = tested on: HCT-116
A498 = tested on: A498

Measured: GI50

O=S1(=O)[C@H](c2ccccc2)c2c(-c3ccccc3)sc(-c3ccccc3)c2[C@@H]1c1ccccc1
inactive: UACC-257 > 100 µM | TK-10 > 100 µM | SW-620 > 100 µM | NCI-H460 > 100 µM | CCRF-CEM > 100 µM | MOLT-4 > 100 µM | HOP-92 27 µM | ACHN > 100 µM | IGROV-1 > 100 µM | KM12 > 100 µM | SF-539 > 100 µM | LOX IMVI 58.5 µM | U-251 > 100 µM | RXF 393 39.8 µM | NCI-H23 > 100 µM | COLO 205 > 100 µM | SNB-75 26.1 µM

C=C(C)C12CC3CC(/C(=N/O)C(C1)/C3=N\O)[C@@]2(C)O (some centres undefined)
inactive: HCT-116 > 100 µM | UACC-257 > 100 µM | TK-10 > 100 µM | SW-620 > 100 µM | NCI-H460 > 100 µM | CCRF-CEM > 100 µM | MOLT-4 > 100 µM | ACHN > 100 µM | IGROV-1 > 100 µM | SF-539 > 100 µM | LOX IMVI > 100 µM | U-251 > 100 µM | RXF 393 > 100 µM | NCI-H23 > 100 µM | COLO 205 > 100 µM | SNB-75 93.8 µM

CCOC(=O)C(=O)Nc1c(C)cccc1C(C)(C)C
inactive: HCT-116 > 100 µM | UACC-257 > 100 µM | TK-10 > 100 µM | SW-620 > 100 µM | NCI-H460 > 100 µM | MOLT-4 > 100 µM | HOP-92 > 100 µM | ACHN > 100 µM | IGROV-1 > 100 µM | KM12 > 100 µM | SF-539 > 100 µM | LOX IMVI > 100 µM | U-251 > 100 µM | RXF 393 > 100 µM | NCI-H23 > 100 µM | COLO 205 > 100 µM | SNB-75 49.1 µM

C/C(=C\CBr)CCC(Br)C(C)(C)Cl (centres undefined)
inactive: HCT-116 > 100 µM | UACC-257 > 100 µM | TK-10 > 100 µM | SW-620 > 100 µM | NCI-H460 > 100 µM | MOLT-4 > 100 µM | HOP-92 > 100 µM | ACHN > 100 µM | IGROV-1 > 100 µM | KM12 > 100 µM | SF-539 > 100 µM | LOX IMVI > 100 µM | U-251 > 100 µM | RXF 393 > 100 µM | NCI-H23 > 100 µM | COLO 205 > 100 µM | SNB-75 > 100 µM

C=C1C(=O)OC2CCCCC3OC3C12 (centres undefined)
inactive: HCT-116 2.99 µM | UACC-257 13.4 µM | TK-10 13.8 µM | SW-620 4.06 µM | NCI-H460 14.8 µM | CCRF-CEM 3.04 µM | MOLT-4 13.1 µM | ACHN 11 µM | IGROV-1 17.1 µM | KM12 16.6 µM | SF-539 11.7 µM | LOX IMVI 15.8 µM | U-251 10.7 µM | RXF 393 13.4 µM | A498 15.3 µM | NCI-H23 14.4 µM | COLO 205 3.23 µM | SNB-75 20.4 µM

CCOC(=O)c1cccc(=O)c(C(=O)OCC)c1
inactive: HCT-116 28.4 µM | UACC-257 57.8 µM | TK-10 > 100 µM | SW-620 50.2 µM | NCI-H460 80 µM | CCRF-CEM 27.2 µM | MOLT-4 35.7 µM | ACHN 63.7 µM | IGROV-1 74 µM | KM12 3.27 µM | SF-539 26.1 µM | U-251 32.4 µM | RXF 393 36.2 µM | A498 > 100 µM | NCI-H23 44 µM | SNB-75 56.9 µM

CCCCc1c2c(nc3c1CC/C(=C\c1ccc([N+](=O)[O-])cc1)C3=O)CCCC2
inactive: HCT-116 1.8 µM | UACC-257 2.3 µM | TK-10 1.66 µM | SW-620 1.69 µM | NCI-H460 1.57 µM | CCRF-CEM 1.46 µM | MOLT-4 1.77 µM | ACHN 1.78 µM | IGROV-1 1.8 µM | KM12 1.7 µM | SF-539 1.79 µM | LOX IMVI 1.6 µM | U-251 1.59 µM | RXF 393 1.3 µM | COLO 205 2.81 µM | SNB-75 8.65 µM

CC(C)(C)c1cc(C#N)c2c(c1)C(=O)OC2(c1ccccc1)c1ccccc1C#N (centres undefined)
inactive: HCT-116 > 100 µM | UACC-257 87.7 µM | TK-10 > 100 µM | SW-620 > 100 µM | NCI-H460 > 100 µM | CCRF-CEM > 100 µM | MOLT-4 23.8 µM | ACHN > 100 µM | IGROV-1 > 100 µM | KM12 43 µM | SF-539 > 100 µM | LOX IMVI > 100 µM | U-251 > 100 µM | RXF 393 > 100 µM | A498 > 100 µM | NCI-H23 > 100 µM | COLO 205 > 100 µM | SNB-75 42.8 µM

COc1cc(Oc2c(O)c(C)c(OC)c(C(C)=O)c2O)c(C(C)=O)c(O)c1C
inactive: HCT-116 52.8 µM | UACC-257 40.6 µM | TK-10 49.4 µM | SW-620 57.3 µM | NCI-H460 46.9 µM | CCRF-CEM > 100 µM | HOP-92 44.6 µM | ACHN 46.5 µM | IGROV-1 67.3 µM | KM12 65.3 µM | SF-539 62.2 µM | LOX IMVI 57.3 µM | U-251 44.2 µM | RXF 393 61.9 µM | NCI-H23 34.4 µM | COLO 205 60.1 µM | SNB-75 > 100 µM

O=C(NC1CCCCC1)c1c(O)[nH]c(=S)[nH]c1=O
inactive: HCT-116 > 100 µM | UACC-257 > 100 µM | TK-10 > 100 µM | SW-620 > 100 µM | NCI-H460 57 µM | CCRF-CEM > 100 µM | MOLT-4 > 100 µM | HOP-92 96.8 µM | ACHN 83 µM | IGROV-1 > 100 µM | KM12 > 100 µM | SF-539 > 100 µM | LOX IMVI > 100 µM | U-251 88.5 µM | A498 > 100 µM | NCI-H23 > 100 µM | COLO 205 > 100 µM | SNB-75 > 100 µM

COc1ccc(C(c2c(O)c3ccccc3n(C)c2=O)c2c(O)c3ccccc3n(C)c2=O)cc1
inactive: HCT-116 36 µM | UACC-257 19.5 µM | TK-10 38.2 µM | SW-620 57.4 µM | NCI-H460 > 100 µM | MOLT-4 35.9 µM | HOP-92 22.6 µM | ACHN 46.5 µM | IGROV-1 71.8 µM | KM12 22.4 µM | SF-539 24.5 µM | LOX IMVI 37.2 µM | U-251 19.1 µM | RXF 393 73.3 µM | NCI-H23 24.5 µM | COLO 205 57.3 µM | SNB-75 16.1 µM

COc1cc(C(=O)C/C(CCC(=O)Nc2ccc(Cl)cc2C)=N/NC(=O)C(N)=O)ccc1O
inactive: HCT-116 > 100 µM | UACC-257 > 100 µM | TK-10 > 100 µM | SW-620 > 100 µM | NCI-H460 > 100 µM | CCRF-CEM > 100 µM | MOLT-4 > 100 µM | HOP-92 > 100 µM | ACHN > 100 µM | IGROV-1 > 100 µM | KM12 > 100 µM | SF-539 > 100 µM | LOX IMVI > 100 µM | U-251 > 100 µM | A498 > 100 µM | NCI-H23 > 100 µM | COLO 205 > 100 µM
